The results in this text go back to publication PMC9820345, “Metal Complexes of a 5-Nitro-8-Hydroxyquinoline-Proline Hybrid with Enhanced Water Solubility Targeting Multidrug Resistant Cancer Cells” (International Journal of Molecular Sciences, 2022).

For one data set, the target named is T1, HSA (Homo sapiens, UniProt P02768).
T1 construct: purchased Sigma-Aldrich (Darmstadt, Germany) A8763
Kind of data set: Time course of complex-HSA interaction (UV-vis). The class given is binding. The following applies: complex–HSA (1:1 or 2:1); pH 7.4. How it is done:
First, changes in the UV-vis spectra were followed in time in the complex—HSA (1:1 or 2:1) system, and it was concluded that the equilibrium can be reached within ca. 30 min for the RhCp* complex (Figure S25). […] The binding of the RuCym complex to HSA without the release of the bidentate ligand was also confirmed by CZE measurement (Figure S27). Most likely a donor atom of the protein binds at the coordination site of the co-ligand.
An Agilent Cary 8454 diode array spectrophotometer (Santa Clara, CA, USA) was used to obtain UV-vis spectra in the wavelength range 200–1000 nm, while spectra were recorded for the Fe(II)-containing samples using an Avantes (Avantes B.V., Apeldoorn, The Nederlands) AvaSpec-ULS2048CL-EVO spectrometer with an AvaLight-DHc light source and FDP-7UVIR200-2-VAR transmission dip probe. The titrations for the Fe(II)-containing samples were performed in a laboratory glove box (GP(Campus), Jacomex) (O2 content ≤ 1 ppm). The path length (ℓ) was 1 cm in most cases (the actual ℓ is always indicated in the legends of the figures). The concentrations of the ligands and complexes were between 40 and 200 µM, and 0.2 M KNO3 for the organometallic complexes or 0.1 M KCl for the Fe(II/III), Cu(II), and Zn(II) complexes were used to adjust the constant ionic strength. […]

For data set [1] the following is noted: at 1 μM concentration; pH 7.4. The method, then: Thus, a ligand displacement study was performed spectrophotometrically using 2,2’-bipyridine as the competitor (Figure S21) to determine the stability constant for the RhCp* complex at pH 7.4.
SUPPLEMENTARY INFORMATION
Figure S 20. UV-vis spectr a recorded for the (a) RhCp* − HQNO2-L-Pro (1:1) and (b) RuCym −
HQNO2-L-Pro (1:1) systems at different times at pH 1. Absorbance values plotted against the time
measured in the (c) RhCp* − HQNO2-L-Pro (1:1) at 435 nm, and (d) RuCym − HQNO2-L-Pro (1:1) at
410 nm at pH 1 and 4 (indicated in the figure). { cligand = 50 μM; cRhCp* or RuCym = 50 μM; l = 1 cm; t =
Figure S 21. (a) UV -vis spectra of the R hCp*-HQNO2-L-Pro complex at various equivalents of 2,2’ -
bipyridine at pH 7.4 after 24 h waiting time and (b) the measured absorbance values at 4 35 nm plotted
against the 2,2’-bipyridine:complex ratio.
complex taken from Ref. [74]. {ccomplex = 50 μM; PBS’ buffer; l = 1 cm; t = 25.0 °C}
c (2,2'-bipyridine) / c (complex) […]

Data set [2] deals with tested cancer cell lines (MES-SA, MES-SA/Dx5, Colo205, Colo320). Briefly: In vitro cytotoxicity, summary over the tested cancer cell lines. The class given is cell-based. The following applies: Homo sapiens, range over MES-SA. The method, then:
The in vitro cytotoxicity of HQNO2-L-Pro and its RuCym and RhCp* complexes was assayed in two chemosensitive and resistant cell pairs to reveal their potential MDR selective toxicity. On the one hand, the parental human uterine sarcoma MES-SA cell line and its P-gp positive MDR derivative MES-SA/Dx5 cell line were applied; on the other hand, the human colon adenocarcinoma Colo205 cell line and its doxorubicin-resistant counterpart, the Colo320 cell line, were involved. The determined IC50 values using 72 h (Colo205 and Colo320) or 144 h incubation time (MES-SA and MES-SA/Dx5) are shown in Table 4. Doxorubicin was used as a control, and IC50 values obtained for the analogous HQCl-L-Pro compounds are also shown for comparison. […] The lower cytotoxicity of HQNO2-L-Pro is most likely due to its very strong hydrophilic features.
Inhibition of the cell growth (expressed as IC50: inhibitory concentration that reduces by 50% the growth of the cells exposed to the tested compounds) was determined from the sigmoid curve where 100 − ((ODsample − ODmedium control)/(ODcell control − ODmedium control)) × 100 values were plotted against the logarithm of compound concentrations. […]

Data set [3] in a line: Cyclic voltammetry of the iron complexes. It is filed as physicochemical. Conditions: for E1/2 vs. NHE: iron(III/II)-ligand (1:3), pH 7.40.
Data set [4] in a line: Aqueous solubility at physiological pH (S7.4). The class given is physicochemical. Conditions: water, pH 7.4, aqueous buffer.

Bounds are passed on as bounds.

T1 sequence (P02768 25-609): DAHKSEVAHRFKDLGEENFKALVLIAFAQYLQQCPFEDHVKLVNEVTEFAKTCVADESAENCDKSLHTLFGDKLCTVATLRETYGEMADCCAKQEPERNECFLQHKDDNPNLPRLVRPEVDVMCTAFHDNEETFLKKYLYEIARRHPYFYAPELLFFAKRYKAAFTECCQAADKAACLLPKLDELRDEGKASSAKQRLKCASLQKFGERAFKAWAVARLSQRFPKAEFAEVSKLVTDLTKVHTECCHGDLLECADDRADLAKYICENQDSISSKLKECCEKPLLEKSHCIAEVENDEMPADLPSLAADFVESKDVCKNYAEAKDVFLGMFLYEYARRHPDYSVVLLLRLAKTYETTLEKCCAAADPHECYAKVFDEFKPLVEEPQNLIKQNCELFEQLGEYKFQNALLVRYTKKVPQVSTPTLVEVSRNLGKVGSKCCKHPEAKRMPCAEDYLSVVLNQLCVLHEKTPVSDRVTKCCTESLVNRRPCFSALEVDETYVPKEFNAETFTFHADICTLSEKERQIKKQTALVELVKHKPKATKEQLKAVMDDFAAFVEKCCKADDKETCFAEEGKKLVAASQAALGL

Regarding `CC1=C(C)[C](C)([Rh]([Cl])[O]c2c(C[NH+]3CCC[C@H]3C(=O)O)cc([N+](=O)[O-])c3cccnc23)C(C)=C1C.[Cl-]` [RhCp*-HQNO2-L-Pro, [RhCp*(HQNO2-L-Pro)Cl]Cl], the “time to reach equilibrium with HSA” value on HSA was at most 30 min. Also, the “dissociation of the complex expected” value in data set [1] was under 1%.

Regarding `O=C(O)[C@@H]1CCCN1Cc1cc([N+](=O)[O-])c2cccnc2c1O` [HQNO2-L-Pro, (2S)-1-((8-hydroxy-5-nitroquinolin-7-yl)methyl)pyrrolidin-1-ium-2-carboxylate], the IC50 in data set [2] was 32.4 to 226 µM. Further, the “E1/2 vs. NHE” value is “+0.207 V” in data set [3] (scan rate 0.005 V/s); “+0.216 V” in data set [3] (scan rate 0.010 V/s); “+0.218 V” in data set [3] (scan rate 0.015 V/s); “+0.217 V” in data set [3] (scan rate 0.020 V/s); “+0.214 V” in data set [3] (scan rate 0.025 V/s). Moreover, the “formal potential E'1/2 of the Fe(III)/Fe(II) redox pair of the iron complexes” value in data set [3] (pH 7.4, 1:3 metal-to-ligand ratio, ciron = 0.5 mM) is recorded as “+215 ± 5 mV vs. NHE”. Moreover, the solubility in data set [4] is over 10 mM.

For orientation: IC50 means the point on the concentration scale where inhibition reaches its midpoint. A higher IC50 goes with weaker potency. The term solubility denotes the dissolved amount per volume that the medium holds. Read a high solubility as a readily soluble substance.
